Data set [1] has as its target Insulin-like growth factor 1 receptor (Homo sapiens, UniProt P08069). As to the kind of experiment: Inhibition of IGF1R by ELISA.
The target of the next data set is Insulin receptor (Homo sapiens, UniProt P06213). Description: Inhibition of IR by ELISA.
In a further data set the test system is MCF7. As to the kind of experiment: Antiproliferative activity against human MCF7 cells after 72 hrs by SRB assay. Format: functional, cell-based. To be noted: MCF7, 72 h.
Data set [2] concerns the target Proto-oncogene tyrosine-protein kinase Src (Homo sapiens) (UniProt P12931). As to the kind of experiment: Inhibition of c-Src at 10 uM.
Data set [3] is described as follows: Dissociation constant, pKa of the compound. In kind it is physicochemical.

Calls of active or inactive are those of the source. No cut-off for these calls is given here. A value given as a limit tells only on which side of the number the result lay.

Chain of Insulin receptor (P06213 28-758 limits assumed): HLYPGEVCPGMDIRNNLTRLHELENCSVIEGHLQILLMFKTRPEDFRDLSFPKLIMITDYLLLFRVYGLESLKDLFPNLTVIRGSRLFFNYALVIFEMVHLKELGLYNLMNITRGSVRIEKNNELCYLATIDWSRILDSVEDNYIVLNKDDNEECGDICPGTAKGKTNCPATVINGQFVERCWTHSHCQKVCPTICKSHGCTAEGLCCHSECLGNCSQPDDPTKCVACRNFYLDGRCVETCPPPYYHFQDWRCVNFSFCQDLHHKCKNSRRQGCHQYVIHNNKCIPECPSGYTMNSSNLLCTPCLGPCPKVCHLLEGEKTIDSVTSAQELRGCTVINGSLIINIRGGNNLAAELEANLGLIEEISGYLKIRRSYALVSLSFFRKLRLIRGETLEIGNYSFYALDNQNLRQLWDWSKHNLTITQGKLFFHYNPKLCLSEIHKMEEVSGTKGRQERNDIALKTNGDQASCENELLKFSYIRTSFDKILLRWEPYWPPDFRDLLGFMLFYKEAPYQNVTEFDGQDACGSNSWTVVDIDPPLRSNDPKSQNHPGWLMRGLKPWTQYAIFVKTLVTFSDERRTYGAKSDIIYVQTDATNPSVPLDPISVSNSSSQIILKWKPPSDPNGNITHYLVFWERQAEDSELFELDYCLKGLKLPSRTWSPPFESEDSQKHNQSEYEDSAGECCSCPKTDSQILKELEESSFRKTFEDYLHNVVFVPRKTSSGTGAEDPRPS
Chain of Insulin receptor (P06213 763-1382 limits assumed): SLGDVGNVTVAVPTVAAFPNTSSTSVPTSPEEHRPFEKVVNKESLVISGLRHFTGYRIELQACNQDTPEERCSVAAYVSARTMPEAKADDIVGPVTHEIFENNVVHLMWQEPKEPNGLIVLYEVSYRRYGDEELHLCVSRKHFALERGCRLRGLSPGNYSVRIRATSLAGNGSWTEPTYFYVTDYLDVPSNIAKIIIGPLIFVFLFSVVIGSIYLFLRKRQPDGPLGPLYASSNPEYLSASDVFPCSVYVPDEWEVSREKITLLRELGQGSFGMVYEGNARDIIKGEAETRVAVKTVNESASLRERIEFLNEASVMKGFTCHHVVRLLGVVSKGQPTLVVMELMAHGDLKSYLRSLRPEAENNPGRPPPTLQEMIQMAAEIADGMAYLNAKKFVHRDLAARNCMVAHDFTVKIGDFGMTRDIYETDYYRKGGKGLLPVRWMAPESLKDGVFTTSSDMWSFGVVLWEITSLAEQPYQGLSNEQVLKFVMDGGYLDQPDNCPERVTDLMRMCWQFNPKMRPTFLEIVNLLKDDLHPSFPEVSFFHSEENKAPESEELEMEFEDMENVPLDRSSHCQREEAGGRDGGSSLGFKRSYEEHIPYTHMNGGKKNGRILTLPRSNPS
Chain of Insulin-like growth factor 1 receptor (P08069 31-736 limits assumed): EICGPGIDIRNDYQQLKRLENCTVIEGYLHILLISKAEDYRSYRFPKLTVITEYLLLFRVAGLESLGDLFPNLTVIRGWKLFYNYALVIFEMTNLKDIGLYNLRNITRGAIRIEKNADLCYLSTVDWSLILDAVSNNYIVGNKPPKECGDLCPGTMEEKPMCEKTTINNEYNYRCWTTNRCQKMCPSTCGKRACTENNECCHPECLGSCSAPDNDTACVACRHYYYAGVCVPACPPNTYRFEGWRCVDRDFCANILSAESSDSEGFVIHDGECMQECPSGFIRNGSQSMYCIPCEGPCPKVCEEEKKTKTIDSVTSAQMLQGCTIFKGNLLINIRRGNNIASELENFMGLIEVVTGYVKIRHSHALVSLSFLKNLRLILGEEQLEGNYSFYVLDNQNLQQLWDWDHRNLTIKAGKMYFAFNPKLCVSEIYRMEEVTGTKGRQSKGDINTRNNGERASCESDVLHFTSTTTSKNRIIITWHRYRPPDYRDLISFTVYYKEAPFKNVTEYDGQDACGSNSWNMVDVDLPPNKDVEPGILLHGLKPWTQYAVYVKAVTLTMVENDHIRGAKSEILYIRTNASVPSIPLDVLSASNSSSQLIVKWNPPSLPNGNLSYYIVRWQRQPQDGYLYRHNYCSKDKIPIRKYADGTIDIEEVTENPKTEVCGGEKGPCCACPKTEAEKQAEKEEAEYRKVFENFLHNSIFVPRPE
Chain of Insulin-like growth factor 1 receptor (P08069 741-1367 limits assumed): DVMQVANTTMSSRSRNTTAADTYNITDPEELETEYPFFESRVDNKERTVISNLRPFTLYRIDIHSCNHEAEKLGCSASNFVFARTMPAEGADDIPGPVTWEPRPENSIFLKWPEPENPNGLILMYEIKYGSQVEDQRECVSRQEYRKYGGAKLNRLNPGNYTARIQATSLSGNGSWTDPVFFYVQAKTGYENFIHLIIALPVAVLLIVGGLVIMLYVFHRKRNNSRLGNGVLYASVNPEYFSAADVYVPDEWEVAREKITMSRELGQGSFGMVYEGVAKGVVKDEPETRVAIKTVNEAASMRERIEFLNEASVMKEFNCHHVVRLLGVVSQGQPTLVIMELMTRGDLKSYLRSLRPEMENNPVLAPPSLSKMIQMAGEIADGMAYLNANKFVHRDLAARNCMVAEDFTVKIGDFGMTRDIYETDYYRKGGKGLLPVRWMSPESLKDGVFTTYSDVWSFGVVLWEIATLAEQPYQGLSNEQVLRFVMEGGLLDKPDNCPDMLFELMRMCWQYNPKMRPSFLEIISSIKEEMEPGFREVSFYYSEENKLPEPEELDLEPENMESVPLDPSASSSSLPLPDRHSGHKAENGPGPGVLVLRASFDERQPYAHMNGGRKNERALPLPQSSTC
Chain of Proto-oncogene tyrosine-protein kinase Src (Homo sapiens) (P12931 2-536 limits assumed): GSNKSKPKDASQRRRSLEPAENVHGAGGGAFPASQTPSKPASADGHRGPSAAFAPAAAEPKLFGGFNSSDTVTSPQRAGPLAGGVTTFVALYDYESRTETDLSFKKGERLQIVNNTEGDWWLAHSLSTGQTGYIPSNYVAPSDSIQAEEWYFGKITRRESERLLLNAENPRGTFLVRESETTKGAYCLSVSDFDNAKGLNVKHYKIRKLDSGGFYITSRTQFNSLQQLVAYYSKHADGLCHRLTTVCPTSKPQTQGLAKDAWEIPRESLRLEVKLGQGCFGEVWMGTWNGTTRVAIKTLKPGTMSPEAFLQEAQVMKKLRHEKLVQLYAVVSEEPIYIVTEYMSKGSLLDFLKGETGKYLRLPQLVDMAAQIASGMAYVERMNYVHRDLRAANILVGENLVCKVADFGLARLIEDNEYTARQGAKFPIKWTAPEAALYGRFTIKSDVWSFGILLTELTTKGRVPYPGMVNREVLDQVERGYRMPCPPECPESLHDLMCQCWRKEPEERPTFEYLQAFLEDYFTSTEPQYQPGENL

With `O=C1NC(=O)/C(=C\c2cc3c(cc2Br)OCO3)S1`, the IC50 in data set [1] is 3.3 µM; against Insulin receptor it was greater than 100 µM; with MCF7, 24.8 µM.

In the case of `CCC(=O)c1cccc(Nc2ccc3c(c2)/C(=C/Nc2ccc(N4CCN(C)CC4)cc2)C(=O)NC3=O)c1`, inhibition in data set [1] was half-maximal at 0.319 µM (IC50).

Consider `O=C1NC(=S)S/C1=C\c1ccc(-c2ccccc2Cl)o1`, for which, in the data set on MCF7, the concentration for half-maximal inhibition (IC50) was greater than 100 µM.

For `CCOc1cccc(/C=C2/SC(=O)NC2=O)c1O`, the IC50 in data set [1] is 8.6 µM; on Insulin receptor, greater than 100 µM; in the data set on MCF7 it was greater than 100 µM.

As for `CCC(C)COc1ccccc1/C=C1/SC(=O)NC1=O` (stereo not given), the IC50 in data set [1] is 9 µM; against Insulin receptor, greater than 100 µM; in the data set on MCF7, greater than 100 µM.

Take `COc1c(Br)cc(/C=C2\SC(=O)NC2=O)cc1Br`: the IC50 in data set [1] was determined as 6.4 µM; at Insulin receptor it was 65.3 µM.

Regarding `O=C1NC(=O)/C(=C\c2cccc([N+](=O)[O-])c2)S1`, the IC50 in data set [1] was 4.9 µM; against Insulin receptor, greater than 100 µM; in the data set on MCF7 it was 55.8 µM.

Compound `CCOc1cc(/C=C2/SC(=O)NC2=O)cc(Cl)c1OCC` yielded an IC50 in data set [1] of 49.8 µM.

Take `CCOc1cc2c(cc1/C=C1\SC(=O)NC1=O)OCO2`: the results for the IC50 (in data set [1]; against Insulin receptor; in the data set on MCF7) were 10 µM, greater than 100 µM and greater than 100 µM, respectively.

On to `O=C1NC(=O)/C(=C/c2ccc(Cl)cc2Cl)S1`, for which the results for the IC50 (in data set [1]; against Insulin receptor; in the data set on MCF7) were 15 µM, greater than 100 µM and greater than 100 µM, respectively.

As for `O=C1NC(=O)/C(=C/c2cccc(OCc3ccc(Cl)cc3Cl)c2)S1`, the IC50 is 1.6 µM in data set [1], greater than 100 µM on Insulin receptor and 25.2 µM in the data set with MCF7.

Compound `O=C1NC(=O)/C(=C\c2ccc(N3CCCC3)c(F)c2)S1` came in with an IC50 in data set [1] greater than 100 µM.

`CCCOc1c(Br)cc(/C=C2\SC(=O)NC2=O)cc1OCC`: the IC50 in data set [1] was greater than 100 µM.

With `CCCCOc1ccc(/C=C2\SC(=O)NC2=O)cc1`, the IC50 in data set [1] was greater than 100 µM.

In the data set on MCF7, `O=C1NC(=O)/C(=C\c2ccc(-c3ccc(Cl)cc3Cl)o2)S1` displayed an IC50 of 17.3 µM.

Regarding `O=C1NC(=O)/C(=C\c2ccc(-c3cccc(Br)c3)o2)S1`, the figures for the IC50 (in data set [1]; on Insulin receptor; with MCF7) were 0.057 µM, 28 µM and 25.3 µM, respectively.

In the case of `COc1cc(/C=C2/SC(=O)NC2=O)cc(I)c1O`, the figures for the IC50 (in data set [1]; against Insulin receptor; in the data set on MCF7) were 6.3 µM, greater than 100 µM and 50.8 µM, respectively.

For `O=C1NC(=O)/C(=C/c2ccccc2F)S1`, the IC50 in data set [1] was 6.6 µM; against Insulin receptor, greater than 100 µM; in the data set on MCF7, greater than 100 µM.

On Insulin receptor, `COc1cc(Br)cc(/C=C2\SC(=O)NC2=O)c1O` gave a 50% inhibitory concentration (IC50) greater than 100 µM. Further, the result in data set [2] was Active.

Regarding `COc1cc(/C=C2/SC(=O)NC2=O)ccc1OCc1ccccc1`, the IC50 in data set [1] is greater than 100 µM.

`O=C1NC(=O)/C(=C\c2ccc(OCc3ccccc3Cl)cc2)S1` returned a half-inhibitory concentration (IC50) in data set [1] greater than 100 µM.

Turning to `O=C1NC(=O)/C(=C\c2ccc(-c3ccc(Br)cc3)o2)S1`, the 50% inhibitory concentration (IC50) was 6.7 µM in data set [1], greater than 100 µM against Insulin receptor and 47.3 µM in the data set with MCF7.

Take `CCOc1ccc(/C=C2/SC(=O)NC2=O)cc1OC`: the concentration for half-maximal inhibition (IC50) was greater than 100 µM against Insulin receptor and 87.3 µM in the data set with MCF7.

`CCOc1cc(/C=C2/SC(=O)NC2=O)cc(Br)c1O`: the IC50 was 5.2 µM in data set [1], greater than 100 µM against Insulin receptor and 56.3 µM in the data set with MCF7.

Compound `CCOc1cc(Br)cc(/C=C2\SC(=O)NC2=O)c1O` came in with an IC50 on Insulin receptor greater than 100 µM.

In the case of `Cc1ccc(N2CCC(N3CCN(C(=O)N4CCOCC4)CC3)CC2)c2[nH]c(-c3c(N[C@@H](CO)Cc4ccccc4Br)cc[nH]c3=O)nc12`, the half-maximal inhibitory concentration (IC50) in data set [1] stood at 0.009 µM.

For `O=C1NC(=O)/C(=C\c2ccc(-c3ccc(F)cc3)o2)S1`, the IC50 in data set [1] is 0.4 µM; against Insulin receptor, greater than 100 µM; with MCF7 it was 36.9 µM.

`O=C1NC(=O)/C(=C\c2ccc(-c3ccc(Cl)c(Cl)c3)o2)S1`: half-maximal inhibition in the data set on MCF7 (IC50) required 14.8 µM. In data set [3], the pKa is 7.9.

In the case of `Cc1ccc(-c2ccc(/C=C3/SC(=O)NC3=O)o2)c(Br)c1`, the IC50 in data set [1] was 6.3 µM; against Insulin receptor, greater than 100 µM.

The compound `O=C1NC(=O)/C(=C\c2ccccc2OCc2ccc(Cl)cc2Cl)S1` came in with a concentration for half-maximal inhibition (IC50) in data set [1] greater than 100 µM.

Take `O=C1NC(=S)S/C1=C\c1ccc(-c2ccc(C(=O)O)cc2)o1`: the IC50 in the data set with MCF7 is 41.9 µM.

`O=C1NC(=O)/C(=C/c2ccc(-c3ccc(O)c(C(=O)O)c3)o2)S1` registered an IC50 with MCF7 of 81.3 µM.

As to `O=C1NC(=O)/C(=C\c2ccc(Cl)c(Cl)c2)S1`, the IC50 in data set [1] is 8.8 µM; against Insulin receptor, greater than 100 µM; with MCF7, 50.8 µM.

As for `C=CCc1cc(/C=C2\SC(=O)NC2=O)cc(OC)c1OC`, in data set [1], the IC50 was greater than 100 µM.

Turning to `O=C1NC(=O)/C(=C\c2ccc(-c3ccc(F)c(Cl)c3)o2)S1`, the IC50 is 0.28 µM in data set [1], greater than 100 µM on Insulin receptor and 16.9 µM in the data set with MCF7.

Take `CCc1ccc(/C=C2\SC(=O)NC2=O)cc1`: the results for the IC50 (in data set [1]; against Insulin receptor) were 11.1 µM and greater than 100 µM, respectively.

As to `COc1cc(/C=C2/SC(=O)NC2=O)cc(OC)c1O`, the IC50 in data set [1] was 5.3 µM; against Insulin receptor, greater than 100 µM.

On to `CCOc1ccc(/C=C2\SC(=O)NC2=O)cc1OCC(C)C`, for which it took 63.9 µM to reach half-maximal inhibition in data set [1] (IC50).

`CCOc1cc(/C=C2\SC(=O)NC2=O)c(Br)cc1OC` registered an IC50 in data set [1] greater than 100 µM.

With `O=C1NC(=O)/C(=C\c2ccc(-c3cccc(Cl)c3Cl)o2)S1`, the IC50 in data set [1] is 3.4 µM; on Insulin receptor, greater than 100 µM; in the data set with MCF7, 21.5 µM.

Regarding `COc1cc(/C=C2\SC(=O)NC2=O)ccc1OCc1ccc(Cl)cc1Cl`, the half-inhibitory concentration (IC50) in data set [1] is greater than 100 µM.

The record behind these values is ChEMBL document CHEMBL1157631, “Discovery and SAR of thiazolidine-2,4-dione analogues as insulin-like growth factor-1 receptor (IGF-1R) inhibitors via hierarchical virtual screening” (J Med Chem, 2010).
